US9649314B2, “Pyrimido[4,5-b]quinoline-4,5(3H,10H)-diones” (NOVARTIS AG, priority 2012, dated 2017)
Read-outs that look alike come from different tables or passages of the source.

Legend:
α-L-iduronidase W402X = test: α-L-iduronidase-W402X assay (restored enzyme activity in cell lysates, 4-MU iduronide substrate); format: cell-based, human; settings: 48 h treatment; for W402X Amax [%]: paromomycin 14 mM as reference control; for AC50: Homo sapiens
Protocol: (§1) Activity of compounds of the present invention was examined using a functional readout for two clinically common stop codon (TAG) mutants (Q70X, W402X) of the lysosomal enzyme α-L-iduronidase. Lack of α-L-iduronidase expression in such stop codon patients leads to the lysosomal storage disorder Mucopolysaccharidosis I (MPSI) also called Hurler syndrome.
(§2) Reporter constructs analogous to constructs above were expressed. In the assay, 2500 cells/well were treated for 48 h with compound, washed with PBS and lysed (0.4 M Sodiumformate, 0.1% NaN3, 0.9% NaCl, 0.2% Triton, pH 3.5). Restored α-L-iduronidase activity in cell lysates was measured with the fluoresecent 4-MU iduronide substrate (4 Methylumbelliferyl α-L-iduronide) after 45 min incubation. Again, paromomycin was used as reference control (14 mM).

CFTR-Y122X = CFTR-Y122X assay (dual reporter isogenic Hek293 cell lines, Renilla luminescence readthrough); format: cell-based; settings: Homo sapiens, HEK293
In short: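 Stable isogenic HEK dual-reporter line (eGFP–CFTR Y122X TGA PTC–myc–Renilla); 2000 cells/well, 24 h, then compound (10 μM; tested up to 100 μM) 24 h at 37 °C. Renilla luminescence normalised to neutral (0%) and 14 mM paromomycin (100%); wildtype construct counterscreen.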

α-L-iduronidase Q70X = test: α-L-iduronidase-Q70X assay (restored enzyme activity in cell lysates, 4-MU iduronide substrate); format: cell-based, human; settings: 48 h treatment; for Q70X Amax [%]: paromomycin 14 mM as reference control; for AC50: Homo sapiens
Protocol: as §1, §2

[1] = system: human coagulation factor F9 containing the R29X (TAG) mutation; test: F9-R29X assay (full length F9 expression in isogenic HekR4 cells, imaging / F9 ELISA); format: cell-based; settings: nonsense mutation suppression; for AC50: Homo sapiens
Protocol: Activity of compounds of the present invention was examined using reporter constructs of full length human coagulation factor F9 containing the R29X (TAG) mutation known from hemophilia B patients (“F9-R29X assay”). Full length F9 cDNA was stably expressed in the above isogenic HekR4 cell background. Stop codon readthrough and full length F9 expression was determined with a miniaturized confocal high throughput imaging assay. In paraformaldehyde fixed and permeabilized cells (10 uM compound; 24 h incubation) F9 expression was identified with a commercial F9 antibody raised against the F9 C-terminus. […] F9 staining intensity (Alexa-Fluor 488) and Draq5 nuclear staining served as readout for data calculation. Percent activity was measured in comparison to high (active control) and low controls (DMSO solvent).

[2] = nonsense mutation suppression, 100% = 14 mM paromomycin, 24 h incubation, tested up to 100 μM, read-out: Amax [%]
[3] = nonsense mutation suppression, 24 h incubation
[4] = at the above dose ranges (up to 100 μM), read-out: suppression, % of paromomycin reference activity

Structure (SMILES) | Emax (CFTR-Y122X; [2]) [%] | AC50 (CFTR-Y122X; [3]) [µM] | also measured
Cn1c2ccccc2c(=O)c2c(=O)n(C3CCCCC3)c(-c3cccs3)nc21 [Example 2.17, 3-cyclohexyl-10-methyl-2-(thiophen-2-yl)pyrimido[4,5-b]quinoline-4,5(3H,10H)-dione] | 293 | 5.8 | W402X Amax [%] (α-L-iduronidase W402X): 211%; AC50 (α-L-iduronidase W402X): 2.9 µM; Q70X Amax [%] (α-L-iduronidase Q70X): 265%; AC50 (α-L-iduronidase Q70X): 2.1 µM; AC50 [1]: 5.4 µM; Amax [%] [1]: 157%
CCc1nc2c(c(=O)c3ccccc3n2C)c(=O)n1C1CCCCCC1 [Example 2.31, 3-cycloheptyl-2-ethyl-10-methylpyrimido[4,5-b]quinoline-4,5(3H,10H)-dione] | 67 | 2.5 | W402X Amax [%] (α-L-iduronidase W402X): 300%; AC50 (α-L-iduronidase W402X): 2.9 µM; Q70X Amax [%] (α-L-iduronidase Q70X): 438%; AC50 (α-L-iduronidase Q70X): 1.7 µM; AC50 [1]: 1.9 µM; Amax [%] [1]: 167%
Cn1c2ccccc2c(=O)c2c(=O)n(C3CCCCC3)c(-c3ccco3)nc21 [Example 2.20, 3-cyclohexyl-2-(furan-2-yl)-10-methylpyrimido[4,5-b]quinoline-4,5(3H,10H)-dione] | 201 | 2.3 | W402X Amax [%] (α-L-iduronidase W402X): 189%; AC50 (α-L-iduronidase W402X): 0.9 µM; Q70X Amax [%] (α-L-iduronidase Q70X): 386%; AC50 (α-L-iduronidase Q70X): 1 µM; AC50 [1]: 5.5 µM; Amax [%] [1]: 158%
Cn1c2ccccc2c(=O)c2c(=O)n(C3CCCCC3)c(-c3ccc([N+](=O)[O-])cc3)nc21 [Example 2.45, 3-cyclohexyl-10-methyl-2-(4-nitrophenyl)pyrimido[4,5-b]quinoline-4,5(3H,10H)-dione] | 14 | 11 | 
CC(C)c1nc2c(c(=O)c3ccccc3n2CCN)c(=O)n1-c1ccccc1 [Example 1.41, 10-(2-aminoethyl)-2-isopropyl-3-phenylpyrimido[4,5-b]quinoline-4,5(3H,10H)-dione] | 198 | 19.5 | 
Cn1c2ccccc2c(=O)c2c(=O)n(-c3c(Cl)cccc3Cl)c(C3CCC3)nc21 [Example 1.46, 2-cyclobutyl-3-(2,6-dichlorophenyl)-10-methylpyrimido[4,5-b]quinoline-4,5(3H,10H)-dione] | 25 |  | 
CC(C)c1nc2c(c(=O)c3cc(Br)ccc3n2C)c(=O)n1-c1ccccc1 [Example 1.25, 7-bromo-2-isopropyl-10-methyl-3-phenylpyrimido[4,5-b]quinoline-4,5(3H,10H)-dione] | 68 | 19.5 | 
Cc1ccc(-c2nc3c(c(=O)c4ccccc4n3C)c(=O)n2C2CCCC2)cc1 [Example 2.40, 3-cyclopentyl-10-methyl-2-(p-tolyl)pyrimido[4,5-b]quinoline-4,5(3H,10H)-dione] | 20 | 6.7 | 
CC(C)c1nc2c(c(=O)c3cc(Br)ccc3n2C)c(=O)n1C1CCCC1 [Example 2.12, 7-bromo-3-cyclopentyl-2-isopropyl-10-methylpyrimido[4,5-b]quinoline-4,5(3H,10H)-dione] |  |  | Emax at 25 µM (CFTR-Y122X; measured at 25 μM compound concentration (footnote a), read-out: Amax [%]: % nonsense mutation suppression relative to paromomycin reference activity): 23%
Cn1c2ccccc2c(=O)c2c(=O)n(C3CCCCCC3)c(-c3ccc([N+](=O)[O-])cc3)nc21 [3-cycloheptyl-10-methyl-2-(4-nitrophenyl)pyrimido[4,5-b]quinoline-4,5(3H,10H)-dione] |  |  | Emax (CFTR-Y122X; [4]): < 5%
Cc1cc(C)cc(-n2c(C(C)C)nc3c(c(=O)c4ccccc4n3C)c2=O)c1 [Example 1.35, 3-(3,5-dimethylphenyl)-2-isopropyl-10-methylpyrimido[4,5-b]quinoline-4,5(3H,10H)-dione] | 13 | 1.5 | 
Cc1ccc(-c2nc3c(c(=O)c4ccccc4n3C)c(=O)n2C2CCCCC2)cc1 [Example 2.36, 3-cyclohexyl-10-methyl-2-(p-tolyl)pyrimido[4,5-b]quinoline-4,5(3H,10H)-dione] | 29 | 3.5 | 
Cn1c2ccccc2c(=O)c2c(=O)n(C3CCCCC3)c(-c3ccccc3F)nc21 [Example 2.41, 3-cyclohexyl-2-(2-fluorophenyl)-10-methylpyrimido[4,5-b]quinoline-4,5(3H,10H)-dione] | 18 | 4.9 | 
C=CCn1c2ccccc2c(=O)c2c(=O)n(-c3ccccc3)c(C3CCC3)nc21 [Example 1.4, 10-allyl-2-cyclobutyl-3-phenylpyrimido[4,5-b]quinoline-4,5(3H,10H)-dione] | 279 | 4 | 
CC(C)c1nc2c(c(=O)c3ccccc3n2C)c(=O)n1-c1c(Cl)cccc1Cl [Example 1.17, 3-(2,6-dichlorophenyl)-2-isopropyl-10-methylpyrimido[4,5-b]quinoline-4,5(3H,10H)-dione] | 230 | 8.8 | 
CCCCCc1nc2c(c(=O)c3ccccc3n2C)c(=O)n1C1CCCC1 [Example 2.18, 3-cyclopentyl-10-methyl-2-pentylpyrimido[4,5-b]quinoline-4,5(3H,10H)-dione] | 222 | 9.9 | 
CC(C)c1nc2c(c(=O)c3ccccc3n2C)c(=O)n1C1CCCOC1 (stereo not shown) [Example 1.45, 2-isopropyl-10-methyl-3-(tetrahydro-2H-pyran-3-yl)pyrimido[4,5-b]quinoline-4,5(3H,10H)-dione] | 389 | 4.7 | 
CCCCCc1nc2c(c(=O)c3ccccc3n2C)c(=O)n1C1CCCCCC1 [Example 2.25, 3-cycloheptyl-10-methyl-2-pentylpyrimido[4,5-b]quinoline-4,5(3H,10H)-dione] | 149 | 6.4 | 
CC(C)Cc1nc2c(c(=O)c3ccccc3n2C)c(=O)n1C1CCCC1 [Example 2.5, 3-cyclopentyl-2-isobutyl-10-methylpyrimido[4,5-b]quinoline-4,5(3H,10H)-dione] | 243 | 8.1 | 
COc1ccc2c(c1)c(=O)c1c(=O)n(C3CCCC3)c(C(C)C)nc1n2C [Example 2.10, 3-cyclopentyl-2-isopropyl-7-methoxy-10-methylpyrimido[4,5-b]quinoline-4,5(3H,10H)-dione] | 25 | 25 | 
Cn1c2ccccc2c(=O)c2c(=O)n(C3CCCC3)c(C3CCCCC3)nc21 [Example 2.28, 2-cyclohexyl-3-cyclopentyl-10-methylpyrimido[4,5-b]quinoline-4,5(3H,10H)-dione] | 89 | 15.1 | 
Cn1c2ccccc2c(=O)c2c(=O)n(C3CCCC3)c(-c3cccs3)nc21 [Example 2.43, 3-cyclopentyl-10-methyl-2-(thiophen-2-yl)pyrimido[4,5-b]quinoline-4,5(3H,10H)-dione] | 17 | 14.7 | 
Cn1c2ccccc2c(=O)c2c(=O)n(C3CCCC3)c(C3CCCN(C4CCCC4)C3)nc21 (stereo not shown) [3-cyclopentyl-2-(1-cyclopentylpiperidin-3-yl)-10-methylpyrimido[4,5-b]quinoline-4,5(3H,10H)-dione] |  |  | Emax (CFTR-Y122X; [4]): < 5%
Cn1c2ccccc2c(=O)c2c(=O)n(C3CCCCCC3)c(-c3ccccc3F)nc21 [3-cycloheptyl-2-(2-fluorophenyl)-10-methylpyrimido[4,5-b]quinoline-4,5(3H,10H)-dione] |  |  | Emax (CFTR-Y122X; [4]): < 5%
CC(C)c1nc2[nH]c3ccccc3c(=O)c2c(=O)n1-c1ccccc1 [Example 1.3, 2-isopropyl-3-phenylpyrimido[4,5-b]quinoline-4,5(3H,10H)-dione] | 279 | 6.1 | 
Cn1c2ccccc2c(=O)c2c(=O)n(-c3ccccc3)c(C3CCCC3)nc21 [Example 1.10, 2-cyclopentyl-10-methyl-3-phenylpyrimido[4,5-b]quinoline-4,5(3H,10H)-dione] | 277 | 11 | 
Cn1c2ccccc2c(=O)c2c(=O)n(-c3ccccc3)c(C3CC(C)(C)C3)nc21 [Example 1.7, 2-(3,3-dimethylcyclobutyl)-10-methyl-3-phenylpyrimido[4,5-b]quinoline-4,5(3H,10H)-dione] | 7 | 3.8 | 
